Measured values as given in patent US9062124B2, “GIP-based mixed agonists for treatment of metabolic disorders and obesity” (priority 2008, dated 2015).
Where a SMILES comes first, the peptide text is derived from it. Bridges are numbered along the chain shown (N, C = ends). Where no end group is shown, it is not given here. [ ]: non-standard residue; d: D form. Aib = CC(C)(N)C(=O)O

Key:
Assay type in all cases: cell-based
GIP receptor = target: T1, GIP receptor (Homo sapiens, UniProt P48546); experiment: cAMP synthesis functional assay (firefly luciferase reporter in HEK293 cells), GIP receptor; details: Table 1; for GIP Receptor relative activity: relative to the native hormone of the indicated receptor
T1 construct: expressed in transfected cells; host or cells: HEK293
T1 sequence (P48546 22-466): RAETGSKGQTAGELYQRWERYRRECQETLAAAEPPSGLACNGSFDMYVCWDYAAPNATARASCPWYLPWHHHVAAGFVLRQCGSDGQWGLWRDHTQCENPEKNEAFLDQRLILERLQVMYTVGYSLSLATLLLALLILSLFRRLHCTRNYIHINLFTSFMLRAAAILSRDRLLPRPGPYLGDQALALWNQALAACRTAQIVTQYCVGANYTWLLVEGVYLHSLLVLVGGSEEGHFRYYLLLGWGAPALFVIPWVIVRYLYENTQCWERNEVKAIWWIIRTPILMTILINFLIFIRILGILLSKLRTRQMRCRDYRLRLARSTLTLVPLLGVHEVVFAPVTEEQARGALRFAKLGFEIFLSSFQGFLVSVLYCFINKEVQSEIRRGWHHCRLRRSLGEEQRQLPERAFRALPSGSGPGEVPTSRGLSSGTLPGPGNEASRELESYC

GLP-1 receptor = target: T2, GLP-1 receptor (Homo sapiens, UniProt P43220); experiment: cAMP synthesis functional assay (firefly luciferase reporter in HEK293 cells), GLP-1 receptor; details: Table 1; relative to the native hormone of the indicated receptor
T2 construct: expressed in transfected cells; host or cells: HEK293
T2 sequence (P43220 24-463, species assumed): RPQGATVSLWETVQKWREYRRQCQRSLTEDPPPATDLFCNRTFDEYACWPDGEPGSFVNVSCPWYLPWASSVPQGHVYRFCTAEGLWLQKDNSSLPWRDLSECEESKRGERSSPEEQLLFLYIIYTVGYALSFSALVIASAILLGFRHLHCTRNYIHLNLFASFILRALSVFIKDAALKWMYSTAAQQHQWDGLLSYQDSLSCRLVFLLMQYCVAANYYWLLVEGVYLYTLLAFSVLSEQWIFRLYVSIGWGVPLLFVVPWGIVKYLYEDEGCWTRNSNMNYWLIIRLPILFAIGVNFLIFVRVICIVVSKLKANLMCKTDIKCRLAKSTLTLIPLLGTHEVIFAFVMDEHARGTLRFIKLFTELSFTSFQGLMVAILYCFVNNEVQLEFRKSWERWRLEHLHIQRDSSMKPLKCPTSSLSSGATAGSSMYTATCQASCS

glucagon receptor = target: T3, glucagon receptor (Homo sapiens, UniProt P47871); experiment: cAMP synthesis functional assay (firefly luciferase reporter in HEK293 cells), glucagon receptor; details: Table 1; for Glucagon Receptor relative activity: relative to the native hormone of the indicated receptor
T3 construct: expressed in transfected cells; host or cells: HEK293
T3 sequence (P47871 26-477): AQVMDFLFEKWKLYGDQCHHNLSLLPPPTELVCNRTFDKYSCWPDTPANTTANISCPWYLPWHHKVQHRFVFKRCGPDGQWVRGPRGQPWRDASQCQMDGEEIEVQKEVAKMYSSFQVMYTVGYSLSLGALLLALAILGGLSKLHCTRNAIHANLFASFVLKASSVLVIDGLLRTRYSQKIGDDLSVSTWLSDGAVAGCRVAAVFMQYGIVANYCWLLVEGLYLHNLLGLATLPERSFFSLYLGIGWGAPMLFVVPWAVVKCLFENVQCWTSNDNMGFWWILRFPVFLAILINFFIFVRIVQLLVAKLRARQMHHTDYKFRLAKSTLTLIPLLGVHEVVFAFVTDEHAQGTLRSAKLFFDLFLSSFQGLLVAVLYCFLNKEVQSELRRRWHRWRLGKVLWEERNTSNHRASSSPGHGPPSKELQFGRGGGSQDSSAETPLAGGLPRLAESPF

| GIP Receptor relative activity (GIP receptor) | GLP-1 Receptor relative activity (GLP-1 receptor) | Glucagon Receptor relative activity (glucagon receptor) | EC50 (GIP receptor; GIP Receptor EC50, nM) | EC50 (glucagon receptor; Glucagon Receptor EC50, nM) | Compound |
| --- | --- | --- | --- | --- | --- |
| 2.81% | 1.27% | 3.19% |  |  | CC[C@H](C)[C@H](NC(=O)[C@H](CO)NC(=O)[C@H](Cc1ccc(O)cc1)NC(=O)[C@H](CC(=O)O)NC(=O)[C@H](CO)NC(=O)[C@@H](NC(=O)[C@H](Cc1ccccc1)NC(=O)[C@@H](NC(=O)CNC(=O)[C@H](CCC(=O)O)NC(=O)[C@H](C)NC(=O)[C@@H](N)Cc1c[nH]cn1)[C@@H](C)O)[C@@H](C)O)C(=O)N[C@@H](Cc1ccc(O)cc1)C(=O)N[C@@H](CCSC)C(=O)N[C@@H](CC(=O)O)C(=O)N[C@H]1CCC(=O)NCCCC[C@@H](C(=O)N[C@@H](CC(=O)O)C(=O)N[C@@H](Cc2ccccc2)C(=O)N[C@H](C(=O)N[C@@H](CC(N)=O)C(=O)N[C@@H](Cc2c[nH]c3ccccc23)C(=O)N[C@@H](CC(C)C)C(=O)N[C@@H](CC(C)C)C(=O)N[C@@H](C)C(=O)N[C@@H](CCC(N)=O)C(N)=O)C(C)C)NC(=O)[C@H](CCC(N)=O)NC(=O)[C@H](Cc2c[nH]cn2)NC(=O)[C@H]([C@@H](C)CC)NC1=O [mt-97] (H-HAEGTFTSDYSIYMDEIHQKDFVNWLLAQ-NH2; lactam 16-20; N-terminus assumed) |
| 0.57% | 12.20% | 162.50% | 14.6 nM | 0.16 nM | CC[C@H](C)[C@H](NC(=O)[C@H](Cc1ccccc1)NC(=O)[C@H](CCC(=O)O)NC(=O)[C@@H]1CCC(=O)NCCCC[C@H](NC(=O)[C@H](CC(=O)O)NC(=O)[C@H](CC(C)C)NC(=O)[C@H](Cc2ccc(O)cc2)NC(=O)[C@H](CCCCN)NC(=O)[C@H](CO)NC(=O)[C@H](Cc2ccc(O)cc2)NC(=O)[C@H](CC(=O)O)NC(=O)[C@H](CO)NC(=O)[C@@H](NC(=O)[C@H](Cc2ccccc2)NC(=O)[C@@H](NC(=O)CNC(=O)[C@H](CCC(N)=O)NC(=O)[C@H](CO)NC(=O)[C@@H](N)Cc2c[nH]cn2)[C@@H](C)O)[C@@H](C)O)C(=O)N[C@@H]([C@@H](C)CC)C(=O)N[C@@H](Cc2c[nH]cn2)C(=O)N[C@@H](CCC(N)=O)C(=O)N1)C(=O)N[C@@H](C)C(=O)N[C@@H](Cc1c[nH]c2ccccc12)C(=O)N[C@@H](CC(C)C)C(=O)N[C@@H](CCSC)C(=O)N[C@@H](CC(N)=O)C(=O)N[C@H](C(N)=O)[C@@H](C)O [mt-69] (H-HSQGTFTSDYSKYLDKIHQEEFIAWLMNT-NH2; lactam 16-20; N-terminus assumed) |
| 13.04% | 32.63% | 0.01% |  |  | Y[Aib]EGTFTSDYSIYLDEQAAKEFVNWLLAGKGKKNWLKHNITQC-NH2 (lactam 16-20) [mt-206] |

| Compound | GIP Receptor relative activity (GIP receptor) | GLP-1 Receptor relative activity (GLP-1 receptor) | Glucagon Receptor relative activity (glucagon receptor) | EC50 (GIP receptor; GIP Receptor EC50, nM) | EC50 (glucagon receptor; Glucagon Receptor EC50, nM) |
| --- | --- | --- | --- | --- | --- |
| CC[C@H](C)[C@H](NC(=O)[C@H](CO)NC(=O)[C@H](Cc1ccc(O)cc1)NC(=O)[C@H](CC(=O)O)NC(=O)[C@H](CO)NC(=O)[C@@H](NC(=O)[C@H](Cc1ccccc1)NC(=O)[C@@H](NC(=O)CNC(=O)[C@H](CCC(N)=O)NC(=O)[C@H](CO)NC(=O)[C@@H](N)Cc1ccc(O)cc1)[C@@H](C)O)[C@@H](C)O)C(=O)N[C@@H](Cc1ccc(O)cc1)C(=O)N[C@@H](CC(C)C)C(=O)N[C@@H](CC(=O)O)C(=O)N[C@@H](CCC(=O)O)C(=O)N[C@H]1CCC(=O)NCCCC[C@@H](C(=O)N[C@@H](CCC(=O)O)C(=O)N[C@@H](Cc2ccccc2)C(=O)N[C@H](C(=O)N[C@@H](CC(N)=O)C(=O)N[C@@H](Cc2c[nH]c3ccccc23)C(=O)N[C@@H](CC(C)C)C(=O)N[C@@H](CC(C)C)C(=O)N[C@@H](C)C(=O)NCC(=O)NCC(=O)N2CCC[C@H]2C(=O)N[C@@H](CO)C(=O)N[C@@H](CO)C(=O)NCC(=O)N[C@@H](C)C(=O)N2CCC[C@H]2C(=O)N2CCC[C@H]2C(=O)N2CCC[C@H]2C(=O)N[C@@H](CO)C(N)=O)C(C)C)NC(=O)[C@H](C)NC(=O)[C@H](C)NC1=O [mt-167] (H-YSQGTFTSDYSIYLDEEAAKEFVNWLLAGGPSSGAPPPS-NH2; lactam 17-20; N-terminus assumed) | 5.01% | 7.94% | 34.53% |  |  |
